This is an account of results in patent US9108933B2, “Method for treating proliferative disorders associated with mutations in c-Met” (Synta Pharmaceuticals Corp., priority 2007, dated 2015).

pIC50: −log10 of the molar value. Entries after “also recorded” stand apart in the source; their conditions may differ.

In general, pIC50 refers to the IC50 on a negative log10 scale, so that one unit is a factor of ten.

For data set [1], the system named is MNK45 cell line, c-Met amplified human gastric carcinoma. Briefly: Cell survival of MKN45 cells (Cell Counting Kit-8). The class given is cell-based. To be noted: 72 hours. The protocol: MNK45 cell line, (DSMZ #ACC 409), which is a c-Met amplified human gastric carcinoma cell line, was obtained from the Deutsche Sammlung von Mikroorganismen and Zellkulturen GmbH (DSMZ; Braunschweig, Germany). […] MNK45 cells (20,000 cells/well) were cultured in 96-well plates and maintained at 37° C. for several hours. The cells were incubated at 37° C. for 72 hours with various concentrations of compound 226 of the invention, 17AAG, or DMAG. 17AAG and 17DMAG are Hsp90 inhibitors that are currently in clinical trials and are used here as positive controls for Hsp90 inhibition. Cell survival was measured with Cell Counting Kit-8 (Dojindo Laboratories, Cat # CK04).
A general note: Formazan colour is commonly taken as a measure of viable cells.

Data set [2] concerns human c-MET amplified gastric carcinoma tumor cell line MKN-45. Briefly: MKN-45 nude mouse xenograft model. The class given is in vivo. To be noted: 50 mg/kg body weight, i.v., 3 times per week, 9 doses. Here is the method: The human gastric carcinoma cell line, MKN-45 (DSMZ #ACC 409), was obtained from the Deutsche Sammlung von Mikroorganismen and Zellkulturen GmbH (DSMZ; Braunschweig, Germany). […] FBS was obtained from ATCC and all other reagents were obtained from Invitrogen Corp. (Carlsbad, Calif., USA). Cells that had been cryopreserved in liquid nitrogen were rapidly thawed at 37° C. and transferred to a tissue culture flask containing growth media and then incubated at 37° C. in a 5% CO2 incubator. To expand the cell line, growth media was replaced every 2-3 days until the flask became 90% confluent, typically in 5-10 days. Cultures were passaged by washing with 10 mL of room temperature phosphate buffered saline (PBS) and then disassociating cells by adding 5 mL 1× trypsin-EDTA and incubating at 37° C. until the cells detached from the surface of the flask. To inactivate the trypsin, 5 mL of growth media was added and then the contents of the flask were centrifuged to pellet the cells. The supernatant was aspirated and the cell pellet was resuspended in 10 mL of growth media and the cell number determined using a hemocytometer. Approximately 3-6×10(6) cells per flask were seeded into 175 cm^2 flasks containing 50 mL of growth media and incubated at 37° C. in a 5% CO2 incubator. […]
Tumors were then permitted to develop in vivo until the majority reached 100-200 mm^3 in tumor volume, which required ˜2 weeks following implantation. […] Tumor volumes (V) were calculated by caliper measurement of the width (W), length (L) and thickness (T) of tumors using the following formula: V=0.5236×(L×W×T). Animals were randomized into treatment groups so that the average tumor volumes of each group were similar at the start of dosing. % T/C values, as a measure of efficacy, were determined as follows: • (i) If ΔT>0: % T/C=(ΔT/ΔC)×100 • (ii) If ΔT<0: % T/C=(ΔT/T0)×100 • (iii) ΔT=Change in average tumor volume between start of dosing and the end of study. • (iv) ΔC=Change in average tumor volume between start of dosing and the end of study. • (v) T0=Average tumor volume at start of dosing. […]

Data set [3] relates to mutant c-Met (T1010I) on ACHN human renal cell carcinoma cells. Briefly: Flow cytometric analysis of c-Met on the surface of ACHN cells. It counts as cell-based. To be noted: 18 hours, read-out: IC50 for degradation of mutant c-Met. The protocol:
(§1) Flow cytometric analysis was used to monitor the degradation of c-Met over-expressed on the surface of the ACHN human renal cell carcinoma cell line which contains the juxtamembrane domain mutation (C3223T: T1010I) and is constitutively active, and the MKN45 which is a c-Met amplified human gastric carcinoma cell line. ACHN and MKN45 cells (5×10^5 cells) were treated with Compound 226, 17-AAG or 17-DMAG for 18 hours. After treatment the cells were stained with FITC conjugated c-MET antibody. The expression of the c-Met cell surface proteins was measured by flow cytometry analysis (see FIG. 4 for ACHN cells and FIG. 5 for MKN45 cells). The IC50 value was determined by XLfit software.
Background: In flow cytometry, cells or beads pass a laser one at a time.

Data set [4] relates to c-Met on MKN45 c-Met amplified human gastric carcinoma cells. Briefly: Flow cytometric analysis of c-Met on the surface of MKN45 cells. The following applies: MKN-45 cell line, 18 hours; read-out: IC50 for degradation of c-Met. It counts as cell-based. Here is the method: as §1
Data set [5] deals with Her2. Briefly: Degradation of Her2 in BT-474 cells, Western blot (Method 1). The class given is cell-based, human. The following applies: overnight. Here is the method:
Human high-Her2 breast carcinoma BT474 (HTB-20), SK-BR-3 (HTB-30) and MCF-7 breast carcinoma (HTB-22) from American Type Culture Collection, VA, USA were grown in Dulbecco's modified Eagle's medium with 4 mM L-glutamine and antibiotics (100 IU/ml penicillin and 100 ug/ml streptomycine; GibcoBRL). To obtain exponential cell growth, cells were trypsinized, counted and seeded at a cell density of 0.5×10^6 cells/ml regularly, every 3 days. All experiments were performed on day 1 after cell passage.
After treatment, each cytoplasmic sample was prepared from 1×10^6 cells by incubation of cell lysis buffer (#9803, cell Signaling Technology) on ice for 10 minutes. The resulting supernatant used as the cytosol fractions were dissolved with sample buffer for SDS-PAGE and run on a SDS-PAGE gel, blotted onto a nitrocellulose membrane by using semi-dry transfer. Non-specific binding to nitrocellulose was blocked with 5% skim milk in TBS with 0.5% Tween at room temperature for 1 hour, then probed with anti-Her2/ErB2 mAb (rabbit IgG, #2242, Cell Signaling) and anti-Tubulin (T9026, Sigma) as housekeeping control protein. HRP-conjugated goat antirabbit IgG (H+L) and HRP-conjugated horse anti-mouse IgG (H+L) were used as secondary Ab (#7074, #7076, Cell Signaling) and LumiGLO reagent, 20× Peroxide (#7003, Cell Signaling) was used for visualization.
(In general: A western blot detects proteins with antibodies after separation by electrophoresis.)

The test system of data set [6] is Hsp90 protein. Briefly: Malachite Green assay of ATPase activity of Hsp90 protein. To be noted: 37° C., 4 hours. The class given is biochemical. Here is the method:
Hsp90 protein was obtained from Stressgen (Cat#SPP-770). Assay buffer: 100 mM Tris-HCl, Ph7.4, 20 mM KCl, 6 mM MgCl2. […] Malachite green reagent was added to the reaction. […] The plate was read by an ELISA reader with an absorbance at 620 nm.

The subject of data set [7] is human tumor cell line MDA-MB-435S. Briefly: MDA-MB-435S nude mouse xenograft model. It counts as in vivo. The following applies: 300 mg/kg body weight, IP, 5 days per week for 3 weeks. Here is the method: FBS was obtained from Sigma-Aldrich Corp. (St. Louis, Mo., USA), and all other reagents were obtained from Invitrogen Corp. (Carlsbad, Calif., USA). Approximately 4-5×10(6) cells that had been cryopreserved in liquid nitrogen were rapidly thawed at 37° C. and transferred to a 175 cm^2 tissue culture flask containing 50 ml of growth media and then incubated at 37° C. in a 5% CO2 incubator. The growth media was replaced every 2-3 days until the flask became 90% confluent, typically in 5-7 days. To passage and expand the cell line, a 90% confluent flask was washed with 10 ml of room temperature phosphate buffered saline (PBS) and the cells were disassociated by adding 5 ml 1× Trypsin-EDTA (Invitrogen) and incubating at 37° C. until the cells detached from the surface of the flask. […] The supernatant was aspirated and the cell pellet was resuspended in 10 ml of growth media and the cell number determined using a hemocytometer. […]
Six to eight week old, female Crl:CD-1-nuBR (nude) mice were obtained from Charles River Laboratories (Wilmington, Mass., USA). […] Tumor volumes (V) were calculated by caliper measurement of the width (W), length (L) and thickness (T) of tumors using the following formula: V=[…]×(L×W×T) Animals were randomized into treatment groups so that the average tumor volumes of each group were similar at the start of dosing. […]

In the case of `C=CCNC1=C2C[C@@H](C)C[C@H](OC)[C@H](O)[C@@H](C)/C=C(\C)[C@H](OC(N)=O)[C@@H](OC)/C=C\C=C(/C)C(=O)NC(=CC1=O)C2=O` [Compound 17AAG], the pIC50 in data set [1] is 7.35.
Take `CC(C)c1cc(-c2nnc(O)n2-c2ccc3c(ccn3C)c2)c(O)cc1O` [Compound 226, 3-(2,4-dihydroxy-5-isopropyl-phenyl)-4-(1-methyl-indol-5-yl)-5-hydroxy-[1,2,4] triazole]: the toxicity entry in data set [2] is “not associated with excessive toxicity; also recorded: Overt toxicity was not observed”. In addition, the “% T/C value” in data set [2] (day 36) is 8%. For the same compound, the “average bodyweight loss relative to the start of the study” value in data set [2] (day 36) is listed as −3.5%. For the same compound, the pIC50 in data set [3] is 7.74; in data set [1] (Homo sapiens), 8.10; in data set [4] it was 7.59.
Consider `C=CCNC1=C2C[C@@H](C)C[C@H](OC)[C@H](O)[C@@H](C)/C=C(\C)[C@H](OC(N)=O)[C@@H](OC)/C=C\C=C(/C)C(=O)NC(=CC1=O)C2=O` [Compound 17-AAG], for which the pIC50 in data set [3] was 6.61; in data set [4], 6.69.
On to `Oc1ccc(-c2nnc(S)n2-c2cccc3ccccc23)c(O)c1` [Compound 108, 3-(2,4-Dihydroxy-3-phenyl)-4-(naphthalen-1-yl)-5-mercapto-triazole], for which the “degradation of Her2” value was “partially degradated” in data set [5] (0.5 μM), “partially degradated” in data set [5] (2 μM) and “almost completely degraded” in data set [5] (5 μM). Further, the “inhibition of ATPase activity of Hsp90” value was “significant inhibition” in data set [6] (4 μM) and “even greater inhibition of ATPase activity of Hsp90 than geldanamycin” in data set [6] (40 μM).
Turning to `CO[C@H]1/C=C\C=C(/C)C(=O)NC2=CC(=O)C(NCCN(C)C)=C(C[C@@H](C)C[C@H](OC)[C@H](O)[C@@H](C)/C=C(\C)[C@@H]1OC(N)=O)C2=O` [Compound 17-DMAG], the pIC50 is 7.02 in data set [3], 7.85 in data set [1] and 7.15 in data set [4].
Turning to `CCc1cc(-c2nnc(S)n2-c2cccc3ccccc23)c(O)cc1O` [Compound 49, 3-(2,4-Dihydroxy-5-ethyl-phenyl)-4-(naphthalen-1-yl)-5-mercapto-triazole], in data set [7], the “toxicity (effect on body weights)” value was “not associated with significant toxicity”.
